In US20140044766A1, “METHOD FOR THE ANTIMICROBIAL PROTECTION OF AN OBJECT USING AN ANTIMICROBIAL PRESSURE-SENSITIVE ADHESIVE PLASTICS FILM” (priority 2007, published 2014):
Entries after “also recorded” stand apart in the source; their conditions may differ.

Legend:
[1] = test system: Staphylococcus aureus bacteria; experiment: inhibition zone method, similar to Japanese standard JIS L 1902: 2002; type: cell-based
Procedure: The antimicrobial activity of the films was determined using the inhibition zone method, similar to that described in Japanese standard JIS L 1902: 2002. The film was cut into small disks with a diameter of 1 cm. They were immersed in a dish containing a nutrient medium and a known quantity of yellow colored Staphylococcus aureus bacteria. […] A protective halo was formed around the treated samples that was termed the inhibition zone, as shown in FIGS. 4-1 to 4-15 representing the results for the antimicrobial films of Examples 1 to 15. Measuring this halo allowed the intensity of the antimicrobial activity of the film to be determined.

[2] = test system: Pseudomonas aeruginosa; settings: cited from earlier work
[3] = test system: penicillin-resistant Stapylococcus aureus; settings: cited from earlier work

In the case of Oc1cc(Cl)ccc1Oc1ccc(Cl)cc1Cl [triclosan, 5-chloro-2-(2,4-dichlorophenoxy)phenol], the “antimicrobial activity in varnish-coated films (comparison in words)” value ([1]; agent incorporated in acrylic varnish on PVC film) is listed as “more effective than Parmetol CF10 and Irgaguard H6000; also recorded: retained a high activity compared with the others”, the “antimicrobial activity in a film incorporating the agent in its material (comparison in words)” value ([1]; cast PVC film, Examples 8 to 15) is listed as “highest antimicrobial activity” and the “effect on Pseudomonas aeruginosa” value [2] is listed as “not affected”. The “effect on penicillin-resistant Stapylococcus aureus” value [3] was “simply inhibited”.
